Reference: patent publication US9259482B2, “Conjugates of polymers having a therapeutically active agent and an angiogenesis targeting moiety attached thereto and uses thereof in the treatment of angiogenesis related diseases” (Ramot at Tel-Aviv University Ltd., priority 2008, dated 2016)
Like-named read-outs stand apart in the source and are kept apart here. Non-standard residues stand in square brackets, D forms with d.

Columns and labels:
HUVEC [1] = experiment: cells; type: cell-based, human; conditions: for IC50: HUVEC
Procedure: (§1) The anti-angiogenesis and anti-proliferative activity of the conjugates described herein was evaluated by the effect of the conjugates on the proliferation of HUVEC, U87 and PANC02 cells.
(§2) HUVEC were plated onto 24-well plate (1×10^4 cells/well) in endothelial cell basal medium 2 (EBM-2; Cambrex, USA) supplemented with 5% fetal bovine serum (FBS). Following 24 hours of incubation (37° C.; 5% CO2) medium was replaced with Endothelial cell growth medium-2 (EGM-2; Cambrex, USA). U87 and PANC02 cells were plated onto 96 well plate (2×10^3 cells/well) in DMEM supplemented with 5% FBS and incubated for 24 hours (37° C.; 5% CO2). Following 24 hours of incubation the medium was replaced with DMEM containing 10% FBS. Cells were challenged with the tested compounds at serial concentrations for 72 hours. After incubation the number of HUVEC were counted by Coulter Counter and U87, and PANC02 cells were counted by XTT respectively.

HUVEC [2] = experiment: Migration assay of HUVEC towards VEGF; type: cell-based, human; conditions: equivalent concentrations of 100 nM PTX, conjugate with 5 mol % E-[c(RGDfk)2], 2.6 mol % PTX, FIG. 14
Procedure: The anti-angiogenesis activity of the conjugates was evaluated by examining the effect of the conjugates on the ability of HUVEC to migrate toward the Vascular Endothelial Growth Factor (VEGF).
Cell migration assay was performed using modified 8 μm Boyden chambers Transwells® (Costar Inc., USA) coated with 10 μg/ml fibronectin HUVEC (15×10^4 cells/100 μl) were challenged with the tested compounds that were added to the upper chamber of the transwells for 2 hours. Following incubation, cells were allowed to migrate to the underside of the chamber for 4 hours in the presence or absence of VEGF (20 ng/ml) in the lower chamber. Cells were then fixed and stained (Hema 3 Stain System; Fisher Diagnostics, USA). The stained migrated cells were imaged using Nikon TE2000E inverted microscope integrated with Nikon DS5 cooled CCD camera by 10× objective, brightfield illumination. Migrated cells from the captured images per membrane were counted using NIH image software. Migration was normalized to the percent of migration toward VEGF of HUVEC which were not incubated with any compound. The extent of migration is inversely proportional to the anti-angiogenesis activity of the compounds.

HUVEC [3] = experiment: Endothelial cell adhesion assay on fibrinogen coated plates; type: cell-based, human; conditions: for effect of free peptides on HUVEC adhesion: free peptide at 50 μM; for inhibition of HUVEC adhesion to fibrinogen: with a similar amount of PTX
Procedure: The ability of E-[c(RGDfk)2] and E-c(RGDfk) moieties (SEQ ID NOs: 2 and 41) in the conjugates to inhibit endothelial attachment to cellular matrix after conjugation, was assessed using an adhesion assay. Flat bottom 96-well culture plates (Nunc, Denmark) were coated with 0.5 μg/well fibrinogen overnight at 4° C. After washing three times with Phosphate buffered saline (PBS), the wells were blocked with 1% bovine serum albumin (BSA) for 1 hour at 37° C. and washed three times again with PBS. HUVEC were harvested in phosphate-buffered saline (137 mM NaCl, 2.7 mM KCl, 4.3 mM Na2HPO4, 1.4 mM KH2PO4, pH 7.3) with 2.5 mM EDTA and resuspended in EBM-2 serum-free media (Clonetics). HUVEC were incubated for 30 minutes, at room temperature, with the tested compounds. The treated HUVEC were plated at 5×10^4 cells per well and were allowed to attach for 1 hour at 37° C. After incubation, the unattached cells were removed by rinsing the wells with PBS. The attached cells were fixed with 3.7% formaldehyde, stained with 0.5% crystal violet and were imaged using Nikon TE2000E inverted microscope integrated with Nikon DS5 cooled CCD camera by 4× objective, brightfield technique. The number of attached cells was quantified with NIH ImageJ processing and analysis software. Non-specific binding was determined by adhesion of HUVEC cells, which were not incubated with any of the tested compounds, to BSA-coated plates.

αvβ3 integrin receptor = biological target: T1, αvβ3 integrin receptor (Homo sapiens, UniProt P05106+P06756); experiment: αvβ3 interaction with fluorescently labeled conjugates in HUVEC; type: cell-based
T1 construct: endogenous in cells; host or cells: HUVEC
T1 sequence (P06756 31-889 limits assumed): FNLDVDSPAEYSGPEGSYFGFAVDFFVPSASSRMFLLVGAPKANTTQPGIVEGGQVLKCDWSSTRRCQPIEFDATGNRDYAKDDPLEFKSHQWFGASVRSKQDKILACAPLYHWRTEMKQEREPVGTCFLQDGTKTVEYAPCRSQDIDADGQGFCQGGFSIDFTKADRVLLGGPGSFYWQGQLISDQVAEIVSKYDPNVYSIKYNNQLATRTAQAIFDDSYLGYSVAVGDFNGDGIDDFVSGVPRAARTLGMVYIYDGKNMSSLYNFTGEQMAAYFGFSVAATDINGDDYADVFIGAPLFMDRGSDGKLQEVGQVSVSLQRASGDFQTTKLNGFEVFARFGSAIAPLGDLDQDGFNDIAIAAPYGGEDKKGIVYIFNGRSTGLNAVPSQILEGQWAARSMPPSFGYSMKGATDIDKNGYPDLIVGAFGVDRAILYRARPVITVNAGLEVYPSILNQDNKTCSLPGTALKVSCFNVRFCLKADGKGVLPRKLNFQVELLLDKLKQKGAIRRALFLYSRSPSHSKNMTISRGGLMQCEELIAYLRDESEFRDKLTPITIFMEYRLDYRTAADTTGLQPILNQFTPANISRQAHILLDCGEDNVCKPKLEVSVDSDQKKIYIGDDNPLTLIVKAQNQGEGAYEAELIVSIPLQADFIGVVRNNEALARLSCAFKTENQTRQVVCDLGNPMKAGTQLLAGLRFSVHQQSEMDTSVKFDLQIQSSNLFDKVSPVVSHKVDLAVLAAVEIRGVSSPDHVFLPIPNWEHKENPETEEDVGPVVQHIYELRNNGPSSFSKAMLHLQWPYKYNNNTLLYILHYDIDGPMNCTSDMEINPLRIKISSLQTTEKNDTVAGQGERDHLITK
T1 sequence (P06756 891-1048 limits assumed): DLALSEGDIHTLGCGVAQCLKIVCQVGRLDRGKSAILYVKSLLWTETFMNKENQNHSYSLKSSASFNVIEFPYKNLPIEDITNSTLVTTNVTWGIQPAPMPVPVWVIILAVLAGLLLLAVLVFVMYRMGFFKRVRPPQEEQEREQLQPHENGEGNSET
T1 sequence (P05106 27-788): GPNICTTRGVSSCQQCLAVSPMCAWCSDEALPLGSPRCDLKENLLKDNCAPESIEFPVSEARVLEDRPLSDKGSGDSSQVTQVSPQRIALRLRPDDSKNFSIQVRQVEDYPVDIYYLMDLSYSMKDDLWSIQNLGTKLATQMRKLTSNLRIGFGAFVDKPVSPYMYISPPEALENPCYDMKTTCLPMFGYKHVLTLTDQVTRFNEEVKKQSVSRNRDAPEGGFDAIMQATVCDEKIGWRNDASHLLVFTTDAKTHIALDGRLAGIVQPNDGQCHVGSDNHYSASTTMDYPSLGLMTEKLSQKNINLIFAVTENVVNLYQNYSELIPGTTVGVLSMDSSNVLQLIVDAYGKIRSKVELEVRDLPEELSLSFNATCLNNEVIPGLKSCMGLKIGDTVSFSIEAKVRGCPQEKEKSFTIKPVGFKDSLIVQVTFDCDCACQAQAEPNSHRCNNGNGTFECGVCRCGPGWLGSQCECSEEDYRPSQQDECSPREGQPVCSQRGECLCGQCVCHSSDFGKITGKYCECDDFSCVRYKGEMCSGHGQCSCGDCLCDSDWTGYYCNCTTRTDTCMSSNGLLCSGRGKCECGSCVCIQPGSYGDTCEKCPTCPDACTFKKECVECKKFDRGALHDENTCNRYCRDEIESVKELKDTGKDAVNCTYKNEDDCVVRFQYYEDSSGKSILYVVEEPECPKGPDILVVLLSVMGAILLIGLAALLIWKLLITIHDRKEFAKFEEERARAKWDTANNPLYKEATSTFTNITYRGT
Procedure: A fluorescence probe, Oregon Green-cadaverine (OG), was conjugated to PGA conjugates through the free carboxylic groups (see Example 5 for synthesis description), in order to study the cellular uptake and trafficking.
HUVEC were plated onto 6 mm plates (5×10^5 cells/plate) in EBM-2 (Cambrex, USA) supplemented with 5% FBS. Following 24 hours of incubation (37° C.; 5% CO2), cells were challenged with either PGA-OG, PGA-c(RADfk)-OG (SEQ ID NO: 24) or PGA-E-[c(RGDfk)2]-OG (SEQ ID NO:25) diluted in EGM-2 medium for 5, 10, 15, 30 or 60 minutes. Cells were then washed in PBS (×3), harvested with PBS containing 2.5 mM EDTA and analyzed with the ImageStream 100 imaging flow cytometer (Amnis). Analysis was performed using IDEAS software.

[4] = tested on: U87 human glioblastoma cells; experiment: Cell proliferation assay, U87; type: cell-based
Procedure: as §1, §2

[5] = tested on: PANC02 murine pancreatic tumor cells; experiment: Cell proliferation assay, PANC02; type: cell-based
Procedure: as §1, §2

HUVEC [6] = experiment: Capillary-like tube formation assay; type: cell-based, human; conditions: equivalent concentrations of 10 nM (PTX) and 19 nM (E-[c(RGDfk)2]), conjugate with 5 mol % E-[c(RGDfk)2], 2.6 mol % PTX, FIG. 16B
Procedure: The anti-angiogenesis activity of the conjugates was evaluated by the effect of the conjugates on the ability of HUVEC cells to form capillary-like tube structures.
The surface of 24-well plates was coated with Matrigel matrix (50 μl/well) (BD Biosciences, USA) on ice and was then allowed to polymerize at 37° C. for 30 minutes. HUVEC (3×10^4 cells) were challenged with the tested compounds, and were seeded on coated plates in the presence of complete EGM-2 medium. After 8 hours of incubation (37° C.; 5% CO2), wells were imaged using Nikon TE2000E inverted microscope integrated with Nikon DS5 cooled CCD camera by 4× objective, brightfield technique. During the tube formation assay endothelial cells directionally migrate to align, branch and form polygonal networks (i.e. tube like structures). The extent of capillary-like tube structures is inversely proportional to the anti-angiogenesis activity of the compounds.

## PGA-c(RADfk) (cyclo(RAD[dF]K); not fully specified (residue 5); also: polyglutamic acid polymer conjugate)
HUVEC [1]; 72 hours, bis-cyclic RGD compounds (X = 2), NA = did not reach IC50 in the concentrations used, 'a -- b' = bell-shaped curve, read-out: IC50 (nM) of PGA- PTX-E-[c(RGDfk)2] (SEQ ID NO: 18) 2.6 mol % PTX, 5 mol % RGD
  IC50: 5000 nM
HUVEC [1]; 72 hours, experiment with monocyclic RGD compounds (X = 1), NA = did not reach IC50 in the concentrations used, 'a -- b' = bell-shaped curve, read-out: IC50 (nM) of PGA- PTX-E-c(RGDfk) (SEQ ID NO: 16) 2.1 mol % PTX, 5 mol % RGD
  IC50: 1000 nM

## c(RADfk): inactive cyclic peptide RAD, negative control (SEQ ID NO:40) (cyclo(RAD[dF]K); not fully specified (residue 5))
HUVEC [1]; FIG. 12A
  effect on HUVEC proliferation: no effect even at those high concentrations
HUVEC [2]
  inhibition of the migration of HUVEC towards VEGF: about 30%
HUVEC [3]
  effect of free peptides on HUVEC adhesion: no effect

## PGA-c(RADfk)-OG (cyclo(RAD[dF]K); not fully specified (residue 5); also: polyglutamic acid polymer conjugate, Oregon Green label)
αvβ3 integrin receptor; ImageStream 100 imaging flow cytometer
  time at which conjugate-cell adherence was first observed: 15 min
αvβ3 integrin receptor; OG fluorescence, FIGS. 11B, 11C
  extent of binding / uptake by HUVEC: bound to a much lesser extent

## c[Arg-Gly-Asp-Phe-Lys] [E-c(RGDfk)]
HUVEC [3]
  effect of free peptides on HUVEC adhesion: completely abrogated HUVEC adhesion

## N=C(N)NCCC[C@@H]1NC(=O)[C@H](CCCCNC(=O)CC[C@H](N)C(=O)NCCCC[C@@H]2NC(=O)[C@@H](Cc3ccccc3)NC(=O)[C@H](CC(=O)O)NC(=O)CNC(=O)[C@H](CCCNC(=N)N)NC2=O)NC(=O)[C@@H](Cc2ccccc2)NC(=O)[C@H](CC(=O)O)NC(=O)CNC1=O [E-[c(RGDfk)2]]
HUVEC [1]; FIG. 12A
  effect on HUVEC proliferation: only at high concentrations
HUVEC [2]
  inhibition of the migration of HUVEC towards VEGF: about 30%
HUVEC [3]
  effect of free peptides on HUVEC adhesion: completely abrogated HUVEC adhesion

## CC(=O)O[C@H]1C(=O)[C@@]2(C)[C@H]([C@H](OC(=O)c3ccccc3)[C@]3(O)C[C@H](OC(=O)[C@H](O)[C@@H](NC(=O)c4ccccc4)c4ccccc4)C(C)=C1C3(C)C)[C@]1(OC(C)=O)CO[C@@H]1C[C@@H]2O [PTX, Paclitaxel]
HUVEC [1]; Homo sapiens, nM PTX, FIG. 12A, read-out: IC50 of HUVEC proliferation
  IC50: ~0.01 nM
HUVEC [1]; Homo sapiens, 72 hours, bis-cyclic RGD compounds (X = 2), NA = did not reach IC50 in the concentrations used, 'a -- b' = bell-shaped curve, read-out: IC50 (nM) of PGA- PTX-E-[c(RGDfk)2] (SEQ ID NO: 18) 2.6 mol % PTX, 5 mol % RGD
  IC50: 0.01 nM
HUVEC [1]; Homo sapiens, 72 hours, bis-cyclic RGD compounds (X = 2), NA = did not reach IC50 in the concentrations used, 'a -- b' = bell-shaped curve, read-out: IC50 (nM) of PGA- PTX-E-[c(RGDfk)2] (SEQ ID NO: 18) 5 mol % PTX, 3.9 mol % RGD
  IC50: 0.009 nM
HUVEC [1]; Homo sapiens, 72 hours, experiment with monocyclic RGD compounds (X = 1), NA = did not reach IC50 in the concentrations used, 'a -- b' = bell-shaped curve, read-out: IC50 (nM) of PGA- PTX-E-c(RGDfk) (SEQ ID NO: 16) 2.1 mol % PTX, 5 mol % RGD
  IC50: 0.0085 nM
[4]; Homo sapiens, U87, 72 hours, bis-cyclic RGD compounds (X = 2), NA = did not reach IC50 in the concentrations used, 'a -- b' = bell-shaped curve, read-out: IC50 (nM) of PGA- PTX-E-[c(RGDfk)2] (SEQ ID NO: 18) 5 mol % PTX, 3.9 mol % RGD
  IC50: 0.045 nM
[4]; Homo sapiens, nM PTX, equivalent doses, FIG. 12B, read-out: IC50 of U87 proliferation
  IC50: ~0.01 nM
[5]; Mus musculus, Panc02, nM PTX, equivalent doses, FIG. 12C, read-out: IC50 of PANC02 proliferation
  IC50: ~200 nM
[5]; Mus musculus, PANC02, 72 hours, bis-cyclic RGD compounds (X = 2), NA = did not reach IC50 in the concentrations used, read-out: IC50 (nM) of PGA- PTX-E-[c(RGDfk)2] (SEQ ID NO: 18) 5 mol % PTX, 3.9 mol % RGD
  IC50: 200 nM
HUVEC [2]; Homo sapiens, HUVEC
  inhibition at 0.1 µM: ~55%
HUVEC [3]; free PTX, PGA and combinations, FIG. 15
  effect on endothelial cell adhesion: negligent effect
HUVEC [6]; Homo sapiens, HUVEC, read-out: inhibition of the formation of tubular structures of HUVEC
  inhibition at 0.01 µM: ~50%

## PGA-PTX-c(RADfk) (cyclo(RAD[dF]K); not fully specified (residue 5); also: polyglutamic acid polymer conjugate, paclitaxel conjugate)
[4]; U87, 72 hours, bis-cyclic RGD compounds (X = 2), NA = did not reach IC50 in the concentrations used, 'a -- b' = bell-shaped curve, read-out: IC50 (nM) of PGA- PTX-E-[c(RGDfk)2] (SEQ ID NO: 18) 5 mol % PTX, 3.9 mol % RGD
  IC50: 65 nM
[5]; PANC02, 72 hours, bis-cyclic RGD compounds (X = 2), NA = did not reach IC50 in the concentrations used, read-out: IC50 (nM) of PGA- PTX-E-[c(RGDfk)2] (SEQ ID NO: 18) 5 mol % PTX, 3.9 mol % RGD
  IC50: 2600 nM
[5]; nM PTX, equivalent doses, FIG. 12C, read-out: IC50 of PANC02 proliferation
  IC50: ~2000 nM
HUVEC [3]; control compared to bis-cyclic RGD-bearing conjugates
  inhibition of HUVEC adhesion to fibrinogen: ~20%
HUVEC [3]; control compared to monocyclic RGD-bearing conjugate
  inhibition of HUVEC adhesion to fibrinogen: ~50%
HUVEC [6]
  inhibition of the formation of tubular structures of HUVEC: about 40%
